Experimental data as given in patent US20240269105A1, “USE OF SGLT-2 INHIBITORS FOR THE PREVENTION AND/OR TREATMENT OF HYPERTENSION IN NON-HUMAN MAMMALS” (BOEHRINGER INGELHEIM VETMEDICA GMBH, priority 2021, published 2024).

What was measured:
[1] = system: human patients suffering from diabetes mellitus type II; conditions: baseline to week 12; empagliflozin 10 mg and 25 mg groups vs placebo; N=825; 'up to'; cited from earlier work
[2] = system: cats previously diagnosed with high systolic blood pressure; assay: Clinical field study (Cats): systolic blood pressure; format: in vivo, cat; conditions: cats (n=5-10), 4 weeks of treatment, open label
Procedure: (§1) In a clinical field study, the effect of velagliflozin on systolic blood pressure administered to cats (n=5-10) previously diagnosed with high systolic blood pressure, is evaluated over a period of 1 month. Systolic blood pressure measurements are performed in accordance with the ACVIM consensus statement (Ref. 3). Systolic blood pressure is measured before treatment start and during weekly consecutive visits (4 weeks of treatment). The study is an open label study (unmasked). The data of this field trial confirm an average reduction of systolic blood pressure of about 5-10 mmHg.

[3] = system: dogs previously diagnosed with high systolic blood pressure; assay: Clinical field study (Dogs): systolic blood pressure; format: in vivo, dog; conditions: dogs (n=5-10), 4 weeks of treatment, open label
Procedure: as §1, with “dogs” for “cats”

Row | Structure (SMILES) | placebo-subtracted mean difference of mean 24-hour systolic BP [1] | average reduction of systolic blood pressure [2] | average reduction of systolic blood pressure [3]
1 | OC[C@H]1O[C@@H](c2ccc(Cl)c(Cc3ccc(O[C@H]4CCOC4)cc3)c2)[C@H](O)[C@@H](O)[C@@H]1O [empagliflozin, Empagliflozin] | up to −4.16 mmHg |  | 
2 | N#Cc1ccc([C@@H]2O[C@H](CO)[C@@H](O)[C@H](O)[C@H]2O)cc1Cc1ccc(C2CC2)cc1 [velagliflozin, Velagliflozin] |  | 5-10 mmHg | 5-10 mmHg
